Test results: patent publication US20050130903A1, “Therapeutic agents and methods of use thereof for the modulation of angiogenesis” (priority 2000, published 2005)
Where two headings read alike, the source gives them in different places. One block for each compound: values may come before it. Square brackets hold non-standard residues; d marks the D form. Peptide text beside a SMILES is read from it. * marks the point of attachment. ξ: configuration not given here. X1 = CO[C@H]1C([C@@]2(C)O[C@@H]2CC=C(C)C)[C@]2(CC[C@H]1OC(=O)N[C@@H](CO*)C(C)C)CO2; X2 = CO[C@@H]1[C@H](OC(=O)*)CC[C@]2(CO2)[C@H]1[C@@]1(C)O[C@@H]1CC=C(C)C; X3 = CO[C@@H]1[C@H](OC(=O)*)CC[C@]2(CO2)[C@H]1[C@@]1(C)O[C@@H]1CCC(C)C; ξP = O=C(O)C1CCCN1

Legend:
[1] = test system: human umbilical vein endothelial cells (HUVEC); experiment: human endothelial cell growth assay (Huvec assay); format: cell-based
Description: For the human endothelial cell growth assay, human umbilical vein endothelial cells (HUVEC) were maintained in Clonetics endothelial growth medium (EGM) in a 37° C. humidified incubator. Cells were detached with trypsin and pelleted by centrifugation at 300×g for 5 minutes at room temperature. HUVEC were added to 96-well plates at 5,000 cells/well. After incubating for 6 hours, the medium was replaced with 0.2 ml fresh EGM supplemented with 0.5 nM bFGF and the desired concentration of test angiogenesis inhibitor compound. Test angiogenesis inhibitor compounds were initially dissolved in ethanol at stock concentrations of either 10 mM or 0.1 mM, and subsequently diluted in EGM to obtain concentrations from […] to 10 μM. After 48 hours at 37° C., the medium was replaced with fresh bFGF-supplemented EGM and test angiogenesis inhibitor compound. Following incubation for an additional 48 hours at 37° C. MTT (3-[4,5-dimethylthiazol-2-yl]-2,5-diphenyl-tetrazolium bromide) was added to 1 mg/ml. After 2-4 hours at 37° C. the medium was replaced with 0.1 ml/well isopropanol. The plates were placed on a shaker for 15 minutes at room temperature and analyzed in a Labsystems Multiskan plate spectrophotometer at an optical density of 570 nm.

MetAP2 = biological target: T1, MetAP2 (Homo sapiens, UniProt P50579); experiment: MetAP2 enzyme assay; format: biochemical
T1 construct: made in house; host or cells: insect cells
T1 sequence (P50579 whole entry): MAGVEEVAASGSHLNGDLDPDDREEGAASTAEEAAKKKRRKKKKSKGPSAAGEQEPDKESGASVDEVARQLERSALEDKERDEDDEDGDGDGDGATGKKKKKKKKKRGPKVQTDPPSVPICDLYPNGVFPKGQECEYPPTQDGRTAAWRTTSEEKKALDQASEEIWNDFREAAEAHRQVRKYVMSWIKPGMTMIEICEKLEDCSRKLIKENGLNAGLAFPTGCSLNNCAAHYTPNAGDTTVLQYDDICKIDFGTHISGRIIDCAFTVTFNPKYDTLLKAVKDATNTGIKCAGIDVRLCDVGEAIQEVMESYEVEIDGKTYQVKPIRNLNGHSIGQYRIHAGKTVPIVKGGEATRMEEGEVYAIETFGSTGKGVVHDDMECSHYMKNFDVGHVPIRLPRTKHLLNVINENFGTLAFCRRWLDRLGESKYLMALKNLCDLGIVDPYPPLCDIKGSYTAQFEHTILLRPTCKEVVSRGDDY
Description: Finally, the ability of the angiogenesis inhibitor compounds of the invention to modulate the activity of MetAP2 may be tested as follows. Recombinant human MetAP2 may be expressed and purified from insect cells as described in Li and Chang, (1996) Biochem. Biophys. Res. Commun. 227:152-159. Various amounts of angiogenesis inhibitor compound is then added to buffer H (10 mM Hepes, pH 7.35, 100 mM KCl, 10% glycerol, and […]) containing 1 nM purified recombinant human MetAP2 and incubated at 37° C. for 30 minutes. To start the enzymatic reaction a peptide containing a methionine residue, e.g., Met-Gly-Met, is added to the reaction mixture (to a concentration of 1 mM). Released methionine is subsequently quantified at different time points (e.g., at 0, 2, 3, and 5 minutes) using the method of Zou et al. (1995) Mol. Gen Genetics 246:247-253).
(§1) The angiogenesis inhibitor compounds of the invention were tested for their ability to modulate human endothelial cell growth and for their ability to modulate the activity of MetAP2. The MetAP2 enzyme assay was performed essentially as described in Turk, B. et al. (1999) Chem. & Bio. 6: 823-833, the entire contents of which are incorporated herein by reference. The bovine aortic endothelial cell growth assay (Baec assay) was performed essentially as described in Turk, B. et al. (supra), the entire contents of which are incorporated herein by reference.

[2] = test system: bovine aortic endothelial cell; experiment: bovine aortic endothelial cell growth assay (Baec assay); format: cell-based
Description: as §1

[3] = plasma stability in human plasma; format: in vitro ADME; conditions: human plasma, 37° C., 20 μM
Description: The plasma stability of the angiogenesis inhibitor compounds of the invention was also tested in human plasma at 37° C. (at a 20 μM concentration of the angiogenesis inhibitor compound). The matrix minus the test angiogenesis inhibitor compound was equilibrated at 37° C. for 3 minutes. The assay was initiated by addition of the test compound, and the reaction mixture was incubated in a shaking water bath at 37° C. […] The supernatant was analysed by Liquid Chromatography/Mass spectrometry (LC/MS) using a four point standard curve to obtain percent recovery.
The parent compound remaining (relative to time 0) in the incubation mixture was plotted as a function of time; a first order exponential equation was fit to the observed data, and the elimination half-lives associated with the disappearance of the test angiogenesis inhibitor compound were determined.

[4] = stability in liver microsomes; format: in vitro ADME, rat; conditions: NADPH regenerating system
Description: The stability of the angiogenesis inhibitor compounds in liver microsomes was also tested. The test angiogenesis inhibitor compound at a concentration of 3 μM was incubated with male rat liver microsomes (0.5 mg/mL protein) in the presence of a NADPH regenerating system (1 mM NADP, 10 mM G6P, 1 U/mL G6PdH2, 3 mM MgCl2 ) in 100 mM Phosphate buffer at pH 7.4 at 37° C. Incubations were performed in the presence and absence of 1 μM epoxide hydrolase (EH) inhibitor N-cyclohexyl-N′-(3-phenylpropyl)urea (M. Morisseau et al. (1999) PNAS 96:8849-54) and quantitative analysis performed using LC/MS/MS.
The parent compound remaining (relative to time 0) in the incubation mixture was plotted as a function of time; a first order exponential equation was fit to the observed data, and the elimination half-lives associated with the disappearance of the test compound were determined.

[5] = Homo sapiens, HUVEC, bFGF-supplemented EGM, MTT

Compound: COC(=O)[C@@H](NC(=O)O[C@@H]1CC[C@]2(CO2)[C@@H]([C@@]2(C)O[C@@H]2CC=C(C)C)[C@@H]1OC)C(C)C [Example 1, 2-{(3R,4S,5S,6R)-5-Methoxy-4-[(2R,3R)-2-methyl-3-(3-methyl-but-2-enyl)-oxiranyl]-1-oxa-spiro[2.5]oct-6-yloxycarbonylamino}-3-methyl-butyric acid methyl ester]
- IC50 [1, 5]: 0.018 nM
- IC50 (MetAP2; read-out: MetAP2 Assay IC50): 4.7 nM
- IC50 ([2]; Bos taurus, BAEC): 0.017 nM

Compound: COC(=O)[C@H](NC(=O)O[C@@H]1CC[C@]2(CO2)[C@@H]([C@@]2(C)O[C@@H]2CC=C(C)C)[C@@H]1OC)C(C)C [Example 2, 2-{(3R,4S,5S,6R)-5-Methoxy-4-[(2R,3R)-2-methyl-3-(3-methyl-but-2-enyl)-oxiranyl]-1-oxa-spiro[2.5]oct-6-yloxycarbonylamino}-3-methyl-butyric acid methyl ester]
- IC50 [1, 5]: 0.04 nM
- IC50 (MetAP2; read-out: MetAP2 Assay IC50): 2 nM
- IC50 ([2]; Bos taurus, BAEC): 0.048 nM

Compound: COC(=O)[C@@H](CC(C)C)NC(=O)O[C@@H]1CC[C@]2(CO2)[C@@H]([C@@]2(C)O[C@@H]2CC=C(C)C)[C@@H]1OC [Example 3, 2-{(3R,4S,5S,6R)-5-Methoxy-4-[(2R,3R)-2-methyl-3-(3-methyl-but-2-enyl)-oxiranyl]-1-oxa-spiro[2.5]oct-6-yloxycarbonylamino}-4-methyl-pentanoic acid methyl ester]
- IC50 [1, 5]: 0.038 nM
- IC50 (MetAP2; read-out: MetAP2 Assay IC50): 5.5 nM
- IC50 ([2]; Bos taurus, BAEC): 0.118 nM

- IC50 (MetAP2; read-out: MetAP2 Assay IC50): 2.7 nM
Compound: COC(=O)[C@H](NC(=O)O[C@@H]1CC[C@]2(CO2)[C@@H]([C@@]2(C)O[C@@H]2CC=C(C)C)[C@@H]1OC)c1ccccc1 [Example 4, {(3R,4S,5S,6R)-5-Methoxy-4-[(2R,3R)-2-methyl-3-(3-methyl-but-2-enyl)-oxiranyl]-1-oxa-spiro[2.5]oct-6-yloxycarbonylamino}-phenyl-acetic acid methyl ester]

Compound: COc1ccc(C[C@H](NC(=O)[C@H](CC(=O)O)NC(=O)CNC(=O)[C@H](CCCNC(=N)N)NC(=O)CNC(=O)O[C@@H]2CC[C@]3(CO3)[C@@H]([C@@]3(C)O[C@@H]3CCC(C)C)[C@@H]2OC)C(=O)N[C@@H](CCCNC(=N)N)C(=O)N[C@@H](CCC(=O)O)C(N)=O)cc1 [Example 14] (X3-GRGDY(Me)RE-NH2)
- IC50 [1]: > 10000 nM
- IC50 (MetAP2): 4000 nM

Compound: CO[C@@H]1[C@H](OC(=O)NCC(=O)N[C@@H](CCCNC(=N)N)C(=O)NCC(=O)N[C@@H](CC(=O)O)c2cccnc2)CC[C@]2(CO2)[C@H]1[C@@]1(C)O[C@@H]1CC=C(C)C [Example 16, N-Carbamoyl (ID#40) (3R,4S,5S,6R) 5-methoxy-4-[(2R,3R)2-methyl-3-(3-methyl-but-2-enyl)-oxiranyl]-1-oxa-spiro[2.5]oct-6-yl ester]
- IC50 [2]: > 100 nM

Compound: CO[C@@H]1[C@H](OC(=O)NCC(=O)N2CCCC2C(=O)N[C@@H](CC(C)C)C(=O)NCC(=O)N[C@@H](CCSC)C(=O)N[C@@H](Cc2c[nH]c3ccccc23)C(=O)N[C@@H](C)C(=O)NCC(N)=O)CC[C@]2(CO2)[C@H]1[C@@]1(C)O[C@@H]1CC=C(C)C (some centres unmarked) [Example 17] (X2-G[ξP]LGMWAG-NH2)
- IC50 [1]: 95 nM
- IC50 (MetAP2): 16.7 nM

Compound: CO[C@H]1C([C@@]2(C)O[C@@H]2CC=C(C)C)[C@]2(CC[C@H]1OC(=O)N[C@@H](COC(=O)[C@H](C)NC(=O)[C@H](Cc1c[nH]c3ccccc13)NC(=O)[C@H](CCSC)NC(=O)CNC(=O)[C@H](CC(C)C)NC(=O)[C@@H]1CCCN1C(C)=O)C(C)C)CO2 (stereo partly drawn) [Example 20, (ID#24)-(2R-{(3R,4S,5S,6R) 5-methoxy-4-[(2R,3R)2-methyl-3-(3-methyl-but-2-enyl)-oxiranyl]-1-oxa-spiro[2.5]oct-6-yloxycarbonyl}amino-3-methyl-butanol)ester] (Ac-PLGMWA-X1)
- recovery at 0 min, 20 μM ([3]; 0 min, read-out: Percent Recovery (Remaining) 0 min): 110%
- recovery at 15 min, 20 μM ([3]; 15 min, read-out: Percent Recovery (Remaining) 15 min): 114%
- recovery at 30 min, 20 μM ([3]; 30 min, read-out: Percent Recovery (Remaining) 30 min): 114%
- recovery at 60 min, 20 μM ([3]; 60 min, read-out: Percent Recovery (Remaining) 60 min): 120%
- recovery at 90 min, 20 μM ([3]; 90 min, read-out: Percent Recovery (Remaining) 90 min): 106%
- recovery at 120 min, 20 μM ([3]; 120 min, read-out: Percent Recovery (Remaining) 120 min): 103%
- half-life at 20 μM ([3]; first order fit, read-out: T1/2): ≥ 500 min

Compound: CO[C@@H]1[C@H](OC(=O)N[C@@H](COC(=O)[C@H](C)NC(=O)[C@H](Cc2c[nH]c3ccccc23)NC(=O)[C@@H](N)CCSC)C(C)C)CC[C@]2(CO2)[C@H]1[C@@]1(C)O[C@@H]1CC=C(C)C [Example 22, (ID#37)-(2R-{(3R,4S,5S,6R) 5-methoxy-4-[(2R,3R)2-methyl-3-(3-methyl-but-2-enyl)-oxiranyl]-1-oxa-spiro[2.5]oct-6-yloxycarbonyl}amino-3-methyl-butanol)ester]
- IC50 [2]: 0.326 nM

Compound: CO[C@@H]1[C@H](OC(=O)N[C@@H](COC(=O)CNC(=O)[C@@H](N)CCSC)C(C)C)CC[C@]2(CO2)[C@H]1[C@@]1(C)O[C@@H]1CC=C(C)C [Example 23, (ID#38)-(2R-{(3R,4S,5S,6R) 5-methoxy-4-[(2R,3R)2-methyl-3-(3-methyl-but-2-enyl)-oxiranyl]-1-oxa-spiro[2.5]oct-6-yloxycarbonyl}amino-3-methyl-butanol)ester]
- IC50 [2]: 0.207 nM

Compound: CO[C@@H]1[C@H](OC(=O)NC(=O)CCl)CC[C@]2(CO2)[C@H]1[C@@]1(C)O[C@@H]1CC=C(C)C [TNP-470, reference compound]
- T1/2 (with EH inhibitor) ([4]; male rat liver microsomes 0.5 mg/mL, 3 μM, with 1 μM EH inhibitor): >1.0 min
- half-life at 3 μM ([4]; pH 7.4, male rat liver microsomes 0.5 mg/mL, without EH inhibitor, read-out: T1/2 (without EH inhibitor)): > 1 min
